Source: patent US20260191823A1, “PROPHYLACTIC OR THERAPEUTIC AGENT FOR ACUTE KIDNEY INJURY INDUCED BY ANTICANCER AGENT” (KYOWA HAKKO BIO CO., LTD., priority 2022, published 2026)

How the values were obtained:
[1] = tested on: cisplatin-induced acute kidney injury model animal; experiment: Cisplatin-induced acute kidney injury model animal; format: in vivo; conditions: administration group
[2] = tested on: Human proximal renal tubular cells (HK-2); experiment: Suppression effect on cisplatin-induced cytotoxicity in renal tubular cells (cell counting kit-8); format: cell-based; conditions: for suppression of cell death over the tested concentrations: 0.01-100 μM test compound, cisplatin 20 μM for 24 h; for suppression of cell death over the tested concentrations / concentration showing a significant cell death-suppressing effect: FIG. 1; for concentration showing a significant cell death-suppressing effect: 0.5 h pre-treatment with test compound, then cisplatin 20 μM for 24 h
Description: Human proximal renal tubular cells (HK-2) were seeded into a 96-well plate containing medium at a density of 5×10^3 cells/well. After confirming that the seeded cells had adhered to the plate, each test compound (GSSSG or Na2S4) was added so that the final concentration was 0 μM, 0.01 μM, 0.02 μM, 0.10 μM, 0.39 μM, 1.56 μM, 6.25 μM, 25 μM, or 100 μM, followed by standing at 37° C. for 0.5 hours. Each test compound was dissolved in PBS and then added.
The supernatant in each well was removed, and the cells were washed with PBS. […] Thereafter, cell viability was evaluated using cell counting kit-8 (Dojindo).
The composition of the medium used in Example 1 was as follows: • D-MEM/Ham's F-12 (FUJIFILM Wako Pure Chemical Corporation)+Penicillin-Streptomycin-Amphotericin B (FUJIFILM Wako Pure Chemical Corporation)+GlutaMAX (Thermo Fisher Scientific)+10% FBS.

[3] = tested on: cisplatin-induced renal injury; conditions: 5.6 mg/kg intraperitoneal; cited from earlier work
[4] = tested on: renal dysfunction caused by administration of cisplatin; conditions: 300 mg/kg intraperitoneally; cited from earlier work

Structure (SMILES) | elevation of blood urea nitrogen (BUN) level [1] | elevation of serum creatinine (CRE) level [1] | suppression of cell death over the tested concentrations ([2]; HK-2 cells) | concentration showing a significant cell death-suppressing effect ([2]; HK-2 cells) [µM] | cell death-suppressing effect relative to Na2S4 ([2]; HK-2 cells, cisplatin 20 μM, compares 0.1 μM with 100 μM) | number of viable renal tubular cells ([2]; test compound 0.1 μM, cisplatin added, fluorescence images, FIG. 2) | effect on cisplatin-induced renal injury [3] | cisplatin-induced body weight suppression [4] | cisplatin-induced elevated blood urea nitrogen [4]
N[C@@H](CCC(=O)N[C@@H](CSSSC[C@H](NC(=O)CC[C@H](N)C(=O)O)C(=O)NCC(=O)O)C(=O)NCC(=O)O)C(=O)O [GSSSG, glutathione trisulfide] | could be suppressed | could be suppressed | tendency to suppress cell death in a concentration-dependent manner | 0.1 | about 1000 times | notably higher | – | – | –
[Na+].[Na+].[S-]SS[S-] [Na2S4, reference compound] | – | – | tendency to suppress cell death in a concentration-dependent manner | 100 | – | – | effective | – | –
CC(C)OC(=O)CNC(=O)C(CS)NC(=O)CCC(N)C(=O)O.O=S(=O)(O)O (centres unmarked) [glutathione monoisopropyl ester sulfate] | – | – | – | – | – | – | – | alleviates | alleviates
